Experimental data taken from patent US8765773B2, “Substituted hydroxamic acids and uses thereof” (Millennium Pharmaceuticals, Inc., priority 2010, dated 2014).

The molecules below were run against T1, purified human HDAC6 (Homo sapiens, UniProt Q9UBN7) (assay: HDAC6 Enzyme Assay). Settings: compound concentration 0.37 μM, read-out: Percent Inhibition.
T1 construct: purchased BPS Bioscience 5006
T1 sequence (Q9UBN7 1-1215): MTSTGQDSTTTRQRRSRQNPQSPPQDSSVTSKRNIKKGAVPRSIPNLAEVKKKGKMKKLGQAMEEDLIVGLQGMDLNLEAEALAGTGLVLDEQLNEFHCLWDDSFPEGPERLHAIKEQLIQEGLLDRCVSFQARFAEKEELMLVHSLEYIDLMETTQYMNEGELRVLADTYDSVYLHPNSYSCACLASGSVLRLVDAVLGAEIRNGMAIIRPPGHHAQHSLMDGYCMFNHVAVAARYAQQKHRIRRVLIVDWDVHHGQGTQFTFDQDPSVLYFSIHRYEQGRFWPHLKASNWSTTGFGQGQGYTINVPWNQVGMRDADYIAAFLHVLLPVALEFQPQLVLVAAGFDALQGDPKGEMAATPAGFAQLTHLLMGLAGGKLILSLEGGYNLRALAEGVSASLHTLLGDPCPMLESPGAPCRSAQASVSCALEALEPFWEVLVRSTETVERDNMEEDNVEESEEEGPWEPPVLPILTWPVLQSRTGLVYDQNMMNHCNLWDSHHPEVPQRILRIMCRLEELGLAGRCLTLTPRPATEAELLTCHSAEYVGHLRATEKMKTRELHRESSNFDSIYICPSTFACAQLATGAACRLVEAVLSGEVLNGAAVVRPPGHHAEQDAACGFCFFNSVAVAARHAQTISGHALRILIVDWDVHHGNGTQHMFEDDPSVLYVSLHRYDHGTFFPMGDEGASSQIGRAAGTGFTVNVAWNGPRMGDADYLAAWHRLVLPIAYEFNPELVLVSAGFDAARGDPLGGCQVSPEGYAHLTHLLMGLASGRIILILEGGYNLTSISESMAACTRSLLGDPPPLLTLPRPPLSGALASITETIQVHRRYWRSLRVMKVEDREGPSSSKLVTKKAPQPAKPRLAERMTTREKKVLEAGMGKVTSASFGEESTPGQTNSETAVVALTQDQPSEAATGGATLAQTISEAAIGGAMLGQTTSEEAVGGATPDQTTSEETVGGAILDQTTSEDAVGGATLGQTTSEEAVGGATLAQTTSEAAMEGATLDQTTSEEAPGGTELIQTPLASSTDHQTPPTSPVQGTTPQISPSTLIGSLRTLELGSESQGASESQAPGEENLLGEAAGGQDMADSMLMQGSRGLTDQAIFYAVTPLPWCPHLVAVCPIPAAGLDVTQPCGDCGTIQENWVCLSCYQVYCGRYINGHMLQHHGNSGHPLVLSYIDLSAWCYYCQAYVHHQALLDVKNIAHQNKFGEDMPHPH
Type: biochemical
Method in brief: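 Readout is AMC fluorescence (Ex 340 nm, Em 460 nm) after trypsin cleavage of the deacetylated Ac-Arg-Gly-Lys(Ac)-AMC product. Reaction: purified human HDAC6, compound or vehicle, 1 hour, 30° C, quenched by trichostatin A. Single-concentration percent inhibition or IC50 calculated versus DMSO-treated samples.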

Structure (SMILES)	inhibition at 0.37 µM
O=C(NO)c1ccc2ncn(CCc3cccc(-c4c(F)cccc4F)c3)c(=O)c2c1 [Compound I-347, 3-[2-(2′,6′-difluorobiphenyl-3-yl)ethyl]-N-hydroxy-4-oxo-3,4-dihydroquinazoline-6-carboxamide]	63.7%
O=C(NO)c1ccc2c(=O)[nH]c(C3CCCCC3)nc2c1 [Compound I-416, 2-cyclohexyl-N-hydroxy-4-oxo-3,4-dihydroquinazoline-7-carboxamide]	90%
NCc1cn(Cc2ccccc2)c(=O)c2cc(C(=O)NO)ccc12 [Compound I-407, 4-(aminomethyl)-2-benzyl-N-hydroxy-1-oxo-1,2-dihydroisoquinoline-7-carboxamide]	51.1%
CC(c1ccccc1C(F)(F)F)n1ccc2ccc(C(=O)NO)cc2c1=O (centres unmarked) [Compound I-224, N-hydroxy-1-oxo-2-{1-[2-(trifluoromethyl)phenyl]ethyl}-1,2-dihydroisoquinoline-7-carboxamide]	96.3%
Nc1cccc(-c2cccc(Cn3cnc4ccc(C(=O)NO)cc4c3=O)c2)c1 [Compound I-177, 3-[(3′-aminobiphenyl-3-yl)methyl]-N-hydroxy-4-oxo-3,4-dihydroquinazoline-6-carboxamide]	93.2%
CC(=O)Nc1ccc(-c2cccc(CCn3cnc4ccc(C(=O)NO)cc4c3=O)c2)cc1 [Compound I-334, 3-{2-[4′-(acetylamino)biphenyl-3-yl]ethyl}-N-hydroxy-4-oxo-3,4-dihydroquinazoline-6-carboxamide]	93.8%
COc1ccc(-c2cccc(CCn3cnc4ccc(C(=O)NO)cc4c3=O)c2)cc1 [Compound I-303, N-hydroxy-3-[2-(4′-methoxybiphenyl-3-yl)ethyl]-4-oxo-3,4-dihydroquinazoline-6-carboxamide]	93.3%
O=C(NO)c1ccc2c(=O)[nH]c(-c3ccccc3Cl)nc2c1 [Compound I-414, 2-(2-chlorophenyl)-N-hydroxy-4-oxo-3,4-dihydroquinazoline-7-carboxamide]	95.4%
O=C(NO)c1ccc2c(=O)[nH]c(-c3cccc(-c4ccncc4)c3)nc2c1 [Compound I-396, N-hydroxy-4-oxo-2-(3-pyridin-4-ylphenyl)-3,4-dihydroquinazoline-7-carboxamide]	62.3%
O=C(NO)c1ccc2c(=O)[nH]c(CC3CCCCC3)nc2c1 [Compound I-409, 2-(cyclohexylmethyl)-N-hydroxy-4-oxo-3,4-dihydroquinazoline-7-carboxamide]	92.5%
Cn1c(-c2nc3cc(C(=O)NO)ccc3c(=O)n2Cc2ccc(C(F)(F)F)cc2)cc2ccccc21 [Compound I-166, N-hydroxy-2-(1-methyl-1H-indol-2-yl)-4-oxo-3-[4-(trifluoromethyl)benzyl]-3,4-dihydroquinazoline-7-carboxamide]	78.8%
O=C(NO)c1ccc2c(=O)[nH]c(-c3nc4ccccc4o3)nc2c1 [Compound I-404, 2-(1,3-benzoxazol-2-yl)-N-hydroxy-4-oxo-3,4-dihydroquinazoline-7-carboxamide]	5.79%

Same assay, conditions: compound concentration 0.412 μM, read-out: Percent Inhibition

Structure (SMILES)	inhibition at 0.412 µM
O=C(NO)c1ccc2ccn(CCCOc3ccc(Oc4ccccc4)cc3)c(=O)c2c1 [Compound I-235, N-hydroxy-1-oxo-2-[3-(4-phenoxyphenoxy)propyl]-1,2-dihydroisoquinoline-7-carboxamide]	87.5%
O=C(NO)c1ccc2ccn(CCO)c(=O)c2c1 [Compound I-158, N-hydroxy-2-(2-hydroxyethyl)-1-oxo-1,2-dihydroisoquinoline-7-carboxamide]	72.5%
O=C(NO)c1ccc2ccn(CCNS(=O)(=O)c3ccc(Cl)cc3)c(=O)c2c1 [Compound I-213, 2-(2-{[(4-chlorophenyl)sulfonyl]amino}ethyl)-N-hydroxy-1-oxo-1,2-dihydroisoquinoline-7-carboxamide]	94%
O=C(NO)c1ccc2ccn(Cc3c(F)cc(F)cc3F)c(=O)c2c1 [Compound I-102, N-hydroxy-1-oxo-2-(2,4,6-trifluorobenzyl)-1,2-dihydroisoquinoline-7-carboxamide]	94.3%
COc1ccc(N(CCCn2ccc3ccc(C(=O)NO)cc3c2=O)C(=O)OC(C)(C)C)cc1 [Compound I-188, tert-butyl {3-[7-[(hydroxyamino)carbonyl]-1-oxoisoquinolin-2(1H)-yl]propyl}(4-methoxyphenyl)carbamate]	94.4%
O=C(NO)c1ccc2ccn(Cc3ccc(Cl)c(Cl)c3)c(=O)c2c1 [Compound I-1, 2-(3,4-dichlorobenzyl)-N-hydroxy-1-oxo-1,2-dihydroisoquinoline-7-carboxamide]	95.9%
O=C(NO)c1ccc2ccn(CCOc3cccc(C(F)(F)F)c3)c(=O)c2c1 [Compound I-282, N-hydroxy-1-oxo-2-{2-[3-(trifluoromethyl)phenoxy]ethyl}-1,2-dihydroisoquinoline-7-carboxamide]	95.5%
O=C(NO)c1ccc2ncn(CCc3ccccn3)c(=O)c2c1 [Compound I-104, N-hydroxy-4-oxo-3-(2-pyridin-2-ylethyl)-3,4-dihydroquinazoline-6-carboxamide]	82.5%
O=C(NO)c1ccc2ccn(C3CCCCCC3)c(=O)c2c1 [Compound I-117, 2-cycloheptyl-N-hydroxy-1-oxo-1,2-dihydroisoquinoline-7-carboxamide]	93.3%
O=C(NO)c1ccc2ncn(Cc3ccccc3C(F)(F)F)c(=O)c2c1 [Compound I-36, N-hydroxy-4-oxo-3-[2-(trifluoromethyl)benzyl]-3,4-dihydroquinazoline-6-carboxamide]	91.8%
COc1ccc(Nc2nc3cc(C(=O)NO)ccc3c(=O)n2C)cc1 [Compound I-49, N-hydroxy-2-[(4-methoxyphenyl)amino]-3-methyl-4-oxo-3,4-dihydroquinazoline-7-carboxamide]	55%
Cn1c(NCc2ccc(Cl)cc2)nc2cc(C(=O)NO)ccc2c1=O [Compound I-139, 2-[(4-chlorobenzyl)amino]-N-hydroxy-3-methyl-4-oxo-3,4-dihydroquinazoline-7-carboxamide]	78.5%
O=C(NO)c1ccc2ccn(Cc3cc(F)ccc3F)c(=O)c2c1 [Compound I-198, 2-(2,5-difluorobenzyl)-N-hydroxy-1-oxo-1,2-dihydroisoquinoline-7-carboxamide]	96.4%
O=C(NO)c1ccc2ccn(Cc3ccc(F)cc3F)c(=O)c2c1 [Compound I-222, 2-(2,4-difluorobenzyl)-N-hydroxy-1-oxo-1,2-dihydroisoquinoline-7-carboxamide]	94.6%
O=C(NO)c1ccc2ccn(Cc3ccc(C(F)(F)F)cc3C(F)(F)F)c(=O)c2c1 [Compound I-78, 2-[2,4-bis(trifluoromethyl)benzyl]-N-hydroxy-1-oxo-1,2-dihydroisoquinoline-7-carboxamide]	92.9%
CS(=O)(=O)c1ccccc1OCCn1ccc2ccc(C(=O)NO)cc2c1=O [Compound I-167, N-hydroxy-2-{2-[2-(methylsulfonyl)phenoxy]ethyl}-1-oxo-1,2-dihydroisoquinoline-7-carboxamide]	96.1%
O=C(NO)c1ccc2ncn(Cc3cccc(F)c3)c(=O)c2c1 [Compound I-111, 3-(3-fluorobenzyl)-N-hydroxy-4-oxo-3,4-dihydroquinazoline-6-carboxamide]	93.5%
Cc1nc(-c2ccccc2OCCn2ccc3ccc(C(=O)NO)cc3c2=O)cs1 [Compound I-27, N-hydroxy-2-{2-[2-(2-methyl-1,3-thiazol-4-yl)phenoxy]ethyl}-1-oxo-1,2-dihydroisoquinoline-7-carboxamide]	98.6%
O=C(NO)c1ccc2c(=O)[nH]c(COc3ccccc3Cl)nc2c1 [Compound I-144, 2-[(2-chlorophenoxy)methyl]-N-hydroxy-4-oxo-3,4-dihydroquinazoline-7-carboxamide]	81.2%
CN(C)c1nc2cc(C(=O)NO)ccc2c(=O)n1-c1ccccc1 [Compound I-192, 2-(dimethylamino)-N-hydroxy-4-oxo-3-phenyl-3,4-dihydroquinazoline-7-carboxamide]	61.5%
